Earlier results, collected in article PMC9271465 (ESMO Open, 2022).
Where two headings read alike, the source gives them in different places.

Assays:
[1] = cited from earlier work
EGFR T790M+ NSCLC = conditions: cited from earlier work
EGFR-mutated NSCLC = conditions: cited from earlier work
[2] = EGFR T790M+ advanced NSCLC after progression on prior EGFR-TKI
[3] = central nervous system activity
[4] = metastatic EGFR T790M+ NSCLC progressed during or after first-line EGFR-TKI

Cc1cc(C(=O)Nc2nc3cccc(Cl)c3n2[C@@H]2CCCCN(C(=O)/C=C/CN(C)C)C2)ccn1 [nazartinib]
most common TRAEs [1]: rash/diarrhea

C=CC(=O)Nc1cc(Nc2nccc(-c3cn(C4CC4)c4ccccc34)n2)c(OC)cc1N(C)CCN(C)C [almonertinib]
intracranial ORR (EGFR T790M+ NSCLC; [2]): 60.9%
updated ORR (EGFR T790M+ NSCLC; [2]): 68.9%
DCR (EGFR T790M+ NSCLC; phase I trial): 89%
ORR (EGFR T790M+ NSCLC; phase I trial): 50%
PFS (EGFR T790M+ NSCLC; phase I trial): 9.6 months

C#Cc1cccc(Nc2ncnc3cc(OCCOC)c(OCCOC)cc23)c1 [erlotinib]
median overall survival (OS) (EGFR-mutated NSCLC; EGFR-mutated NSCLC): 19.3-30.5 months
median progression-free survival (PFS) (EGFR-mutated NSCLC; EGFR-mutated NSCLC): 9.7-10.8 months

C=CC(=O)Nc1cc(Nc2nccc(-n3cc(CN(C)C)c(-c4ccccc4)n3)n2)c(OC)cc1N1CCOCC1 [lazertinib]
most common TRAEs [1]: rash/pruritis

C=CC(=O)Nc1cc(Nc2nccc(-c3cn(C)c4ccccc34)n2)c(OC)cc1N(C)CCN(C)C [osimertinib]
intracranial DCR (EGFR T790M+ NSCLC; [3]): 92%
intracranial ORR (EGFR T790M+ NSCLC; [3]): 54%
ORR (EGFR T790M+ NSCLC; [4]): 61%-71
median PFS (EGFR T790M+ NSCLC; [4]): 9.6-15.2 months

C#Cc1cccc(Nc2ncnc3cc4c(cc23)OCCOCCOCCO4)c1 [Icotinib]
median OS (EGFR-mutated NSCLC): 30.5 months
median PFS (EGFR-mutated NSCLC): 11.2 months

C=CC(=O)Nc1cccc(Oc2nc(Nc3ccc(N4CCN(C)CC4)c(F)c3)nc3[nH]ccc23)c1 [abivertinib]
most common TRAEs [1]: rash/diarrhea

C=CC(=O)Nc1cc(Nc2nccc(-c3cn(C)c4ccccc34)n2)c(OCC(F)(F)F)nc1N(C)CCN(C)C [furmonertinib]
ORR (EGFR T790M+ NSCLC; EGFR T790M-mutated NSCLC): 74%
median PFS (EGFR T790M+ NSCLC; EGFR T790M-mutated NSCLC): 9.6 months
